In patent US11124518B2, “L,2-dihydro-3H-pyrazolo[3,4-D]pyrimidin-3-one analogs” (Recurium IP Holdings, LLC, priority 2017, dated 2021):
Structures can show the parent of a compound that is named as a salt.

Assays:
Wee1 kinase = Wee1 kinase (Homo sapiens (Human), UniProt P30291); assay: Wee1 Binding Assay (FRET); details: Wee1 kinase 2 nM, tracer 178 50 nM, 60 min at RT, read-out: Wee1 Enzymatic IC50
Experimental: Wee 1 kinase was determined by using Flurorescence Resonance Energy Transfer (FRET) assay. […] The plate was shaken for 30 seconds, incubated for 60 min at RT, and recorded on fluorescence plate reader.

H23 cells = assay: H23 Cellular Proliferation Assay (CellTiter-Glo); assay type: cell-based; details: Homo sapiens, NCI-H23, 96 h, 4 days
Experimental: Cells were treated with compounds diluted in DMSO and a 9 point 5-fold serial dilutions. Plates were placed in 37° C., 5% CO2 to incubate for 4 days. Before they were developed by adding 100 μL of CellTiter-Glo reagent (Promega) to the assay plate, plates were shaken briefly for 2 mins and allowed to incubate at RT for 10 mins. The plates are read with a M5e plate reader according to CellTiter-Glo protocol. The GraphPad Prism software was used to get IC50 values. The bottom of the plates was pasted with white back seal and luminescence was recorded with Enspire or Envision.

SW480 cells = assay: SW480 Cellular Proliferation Assay (CellTiter-Glo); assay type: cell-based; details: Homo sapiens, 96 h, 4 days
Experimental: Cells were treated with compounds diluted in DMSO and a 10 point 3-fold serial dilutions. Plates were placed in 37° C., 5% CO2 for to incubate for 4 days. Before they were developed by adding 100 μL of CellTiter-Glo reagent (Promega) to the assay plate, plates were shaken briefly for 2 mins and allowed to incubate at RT for 60 mins. The bottom of the plates was pasted with white back seal and luminescence was recorded with Enspire or Envision.

Sequence of Wee1 kinase (P30291 whole entry): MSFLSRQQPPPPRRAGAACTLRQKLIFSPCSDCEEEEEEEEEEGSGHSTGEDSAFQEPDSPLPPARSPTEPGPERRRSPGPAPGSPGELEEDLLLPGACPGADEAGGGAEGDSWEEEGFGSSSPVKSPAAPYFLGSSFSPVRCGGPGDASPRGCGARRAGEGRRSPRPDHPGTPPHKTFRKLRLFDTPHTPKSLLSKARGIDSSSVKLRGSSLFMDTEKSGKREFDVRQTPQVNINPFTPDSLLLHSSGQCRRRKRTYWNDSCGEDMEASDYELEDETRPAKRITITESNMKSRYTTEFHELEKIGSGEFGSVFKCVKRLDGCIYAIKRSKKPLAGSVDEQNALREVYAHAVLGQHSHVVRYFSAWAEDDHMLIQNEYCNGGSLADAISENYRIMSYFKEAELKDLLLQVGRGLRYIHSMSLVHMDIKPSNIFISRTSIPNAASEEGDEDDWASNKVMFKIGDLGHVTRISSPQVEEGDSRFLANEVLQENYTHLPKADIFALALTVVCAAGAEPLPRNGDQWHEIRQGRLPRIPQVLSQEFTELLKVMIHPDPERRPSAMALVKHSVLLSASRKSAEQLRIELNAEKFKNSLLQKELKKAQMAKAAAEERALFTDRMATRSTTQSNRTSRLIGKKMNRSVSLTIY

IC50 (Wee1 kinase) [nM]	IC50 (SW480 cells) [nM]	Structure (SMILES)	IC50 (H23 cells) [nM]
< 10	100 to 1000	C=CCn1c(=O)c2cnc(Nc3ccc4c(c3)CN(C)CC4)nc2n1-c1cccc(C(C)(C)O)n1 [Example 5, 2-Allyl-1-(6-(2-hydroxypropan-2-yl)pyridin-2-yl)-6-((2-methyl-1,2,3,4-tetrahydroisoquinolin-7-yl)amino)-1,2-dihydro-3H-pyrazolo[3,4-d]pyrimidin-3-one]	< 100
< 10	> 1000	C=CCn1c(=O)c2cnc(Nc3ccc4c(c3)CC(N(C)C)C4)nc2n1-c1cccc(C(C)(C)O)n1 (stereo not drawn) [Example 22, 2-allyl-6-((2-(dimethylamino)-2,3-dihydro-1H-inden-5-yl)amino)-1-(6-(2-hydroxypropan-2-yl)pyridin-2-yl)-1,2-dihydro-3H-pyrazolo[3,4-d]pyrimidin-3-one]	100 to 1000
< 10	100 to 1000	C=CCn1c(=O)c2cnc(Nc3ccc4c(c3)CN(C(C)=O)CC4)nc2n1-c1cccc(C(C)(C)O)n1 [Example 8, 6-((2-Acetyl-1,2,3,4-tetrahydroisoquinolin-7-yl)amino)-2-allyl-1-(6-(2-hydroxypropan-2-yl)pyridin-2-yl)-1,2-dihydro-3H-pyrazolo[3,4-d]pyrimidin-3-one]	> 1000
< 10	> 1000	C=CCn1c(=O)c2cnc(Nc3ccc4c(c3)CCN(C)C4)nc2n1-c1cccc(C(C)(C)O)n1 [Example 16, 2-Allyl-1-(6-(2-hydroxypropan-2-yl)pyridin-2-yl)-6-((2-methyl-1,2,3,4-tetrahydroisoquinolin-6-yl)amino)-1,2-dihydro-3H-pyrazolo[3,4-d]pyrimidin-3-one]	< 100
< 10	100 to 1000	C=CCn1c(=O)c2cnc(Nc3ccc4c(c3)C(=O)N(C)CC4)nc2n1-c1cccc(C(C)(C)O)n1 [Example 20, 7-((2-Allyl-1-(6-(2-hydroxypropan-2-yl)pyridin-2-yl)-3-oxo-2,3-dihydro-H-pyrazolo[3,4-d]pyrimidin-6-yl)amino)-2-methyl-3,4-dihydroisoquinolin-1(2H)-one]	100 to 1000
< 10	> 1000	C=CCn1c(=O)c2cnc(Nc3ccc4c(c3)CN(CCO)CC4)nc2n1-c1cccc(C(C)(C)O)n1 [Example 13, 2-Allyl-6-((2-(2-hydroxyethyl)-1,2,3,4-tetrahydroisoquinolin-7-yl)amino)-1-(6-(2-hydroxypropan-2-yl)pyridin-2-yl)-1,2-dihydro-3H-pyrazolo[3,4-d]pyrimidin-3-one hydrochloride]	100 to 1000
< 10	> 1000	C=CCn1c(=O)c2cnc(Nc3ccc4c(c3)CCNC4)nc2n1-c1cccc(C(C)(C)O)n1 [Example 15, 2-Allyl-1-(6-(2-hydroxypropan-2-yl)pyridin-2-yl)-6-((1,2,3,4-tetrahydroisoquinolin-6-yl)amino)-1,2-dihydro-3H-pyrazolo[3,4-d]pyrimidin-3-one hydrogen chloride]	100 to 1000
< 10	> 1000	C=CCn1c(=O)c2cnc(Nc3ccc4c(c3)CNCC43CC3)nc2n1-c1cccc(C(C)(C)O)n1 [Example 2, 2-Alyl-6-((2′,3′-dihydro-1′H-spiro[cyclopropane-1,4′-isoquinolin]-7′-yl)amino)-1-(6-(2-hydroxypropan-2-yl)pyridin-2-yl)-1,2-dihydro-3H-pyrazolo[3,4-d]pyrimidin-3-one hydrochloride]	< 100
< 10	> 1000	C=CCn1c(=O)c2cnc(Nc3ccc4c(c3)C(=O)NCC4)nc2n1-c1cccc(C(C)(C)O)n1 [Example 19, 7-((2-Allyl-1-(6-(2-hydroxypropan-2-yl)pyridin-2-yl)-3-oxo-2,3-dihydro-1H-pyrazolo[3,4-d]pyrimidin-6-yl)amino)-3,4-dihydroisoquinolin-1(2H)-one]	> 1000

Structure (SMILES)	IC50 (Wee1 kinase) [nM]	IC50 (SW480 cells) [nM]	IC50 (H23 cells) [nM]
C=CCn1c(=O)c2cnc(Nc3ccc4c(c3)CNCC4)nc2n1-c1cccc(C(C)(C)O)n1 [Example 6, 2-Allyl-1-(6-(2-hydroxypropan-2-yl)pyridin-2-yl)-6-((1,2,3,4-tetrahydroisoquinolin-7-yl)amino)-1,2-dihydro-3H-pyrazolo[3,4-d]pyrimidin-3-one hydrochloride]	< 10	100 to 1000	100 to 1000
